Source: ChEMBL document CHEMBL1201862, “PubChem BioAssay data set” (2004)
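48-hour exposure; five concentrations; linearly interpolated endpoints. Here, GI50 denotes the concentration required for 50% inhibition of growth.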 Active and inactive are the calls of the source. No stated cut-off is given here; in the data, active = GI50 up to about 1.1 µM and inactive = higher.

Tests used:
Test in all cases: inhibition of tumour cell growth, NCI panel, 48 h
SK-OV-3 = system: SK-OV-3
BT-549 = system: BT-549
RPMI-8226 = system: RPMI-8226
SNB-19 = system: SNB-19
786-0 = system: 786-0
UACC-62 = system: UACC-62
UO-31 = system: UO-31
NCI/ADR-RES = system: NCI/ADR-RES
RXF 393 = system: RXF 393
DU-145 = system: DU-145
LOX IMVI = system: LOX IMVI
OVCAR-4 = system: OVCAR-4
EKVX = system: EKVX
K562 = system: K562
SF-268 = system: SF-268
COLO 205 = system: COLO 205
NCI-H522 = system: NCI-H522
HCT-116 = system: HCT-116
HOP-62 = system: HOP-62
PC-3 = system: PC-3

Measured: GI50

O=C(c1ccccc1)N(CCCCNC(=O)C(F)(F)F)CCCNC(=O)C(F)(F)F
inactive: SK-OV-3 > 100 µM | BT-549 > 100 µM | RPMI-8226 > 100 µM | SNB-19 > 100 µM | 786-0 > 100 µM | UACC-62 > 100 µM | UO-31 > 100 µM | NCI/ADR-RES > 100 µM | RXF 393 > 100 µM | DU-145 > 100 µM | LOX IMVI > 100 µM | OVCAR-4 > 100 µM | EKVX > 100 µM | K562 > 100 µM | SF-268 > 100 µM | COLO 205 > 100 µM | NCI-H522 > 100 µM | HCT-116 > 100 µM

C=C[C@@H](OCOCC[Si](C)(C)C)[C@@H](CC)OC(CCCOC(=O)C(C)(C)C)OC (stereo not given in full)
inactive: SK-OV-3 > 100 µM | RPMI-8226 41.7 µM | SNB-19 16.3 µM | 786-0 25 µM | UACC-62 25.1 µM | UO-31 40 µM | HOP-62 36.7 µM | NCI/ADR-RES 30.1 µM | DU-145 43.7 µM | PC-3 37.3 µM | OVCAR-4 26.4 µM | EKVX 25.3 µM | K562 60.4 µM | SF-268 33.3 µM | COLO 205 29.9 µM | HCT-116 21 µM

O=C(CSc1nc2ccc(I)cc2c(=O)n1Cc1ccccc1)N/N=C/c1ccccc1
inactive: SK-OV-3 10.4 µM | RPMI-8226 82.4 µM | SNB-19 17.5 µM | 786-0 11.8 µM | UACC-62 39.2 µM | HOP-62 6.82 µM | NCI/ADR-RES 23.8 µM | RXF 393 8.13 µM | DU-145 39.3 µM | LOX IMVI 41.7 µM | PC-3 10.3 µM | OVCAR-4 34.2 µM | EKVX 26.6 µM | K562 29.6 µM | SF-268 10.6 µM | COLO 205 > 100 µM | NCI-H522 18.1 µM | HCT-116 33.9 µM

CCO/C=C(\C(=O)OC)S(=O)(=O)c1ccc(C)cc1
inactive: SK-OV-3 > 100 µM | RPMI-8226 > 100 µM | SNB-19 > 100 µM | 786-0 > 100 µM | UACC-62 > 100 µM | UO-31 61.7 µM | HOP-62 > 100 µM | NCI/ADR-RES > 100 µM | RXF 393 > 100 µM | DU-145 > 100 µM | LOX IMVI > 100 µM | PC-3 > 100 µM | OVCAR-4 > 100 µM | EKVX > 100 µM | K562 > 100 µM | SF-268 > 100 µM | COLO 205 > 100 µM | NCI-H522 > 100 µM | HCT-116 > 100 µM

COc1cc(/C=C2\Sc3scc(-c4cccc([N+](=O)[O-])c4)[n+]3C2=O)cc(OC)c1OC
inactive: SK-OV-3 23.6 µM | RPMI-8226 4.06 µM | SNB-19 16.7 µM | 786-0 10.4 µM | UACC-62 11.3 µM | UO-31 6.37 µM | HOP-62 16.6 µM | NCI/ADR-RES 17.4 µM | RXF 393 12.5 µM | DU-145 15.2 µM | LOX IMVI 10.7 µM | PC-3 21.4 µM | OVCAR-4 15.3 µM | EKVX 12.4 µM | K562 4.54 µM | SF-268 11.8 µM | COLO 205 3.87 µM | NCI-H522 4.67 µM | HCT-116 11.1 µM

CC1=C(C(=O)OC23CC4CC(CC(C4)C2)C3)C(c2ccccc2OC(F)F)C(C(=O)OC23CC4CC(CC(C4)C2)C3)=C(C)N1 (stereo not given)
inactive: SK-OV-3 > 100 µM | BT-549 > 100 µM | RPMI-8226 > 100 µM | SNB-19 > 100 µM | 786-0 > 100 µM | UACC-62 > 100 µM | UO-31 > 100 µM | HOP-62 > 100 µM | NCI/ADR-RES > 100 µM | RXF 393 > 100 µM | DU-145 > 100 µM | LOX IMVI > 100 µM | OVCAR-4 > 100 µM | EKVX > 10 µM | SF-268 > 100 µM | COLO 205 > 100 µM | NCI-H522 75.2 µM | HCT-116 > 100 µM

ClCCN(CC#CCCCC#CCN(CCCl)CCCl)CCCl
inactive: SK-OV-3 9.31 µM | RPMI-8226 2.79 µM | SNB-19 13.6 µM | 786-0 4.61 µM | UACC-62 4.98 µM | UO-31 25.8 µM | HOP-62 11.3 µM | NCI/ADR-RES 14.5 µM | RXF 393 15.5 µM | LOX IMVI 5.86 µM | OVCAR-4 20.6 µM | EKVX 22.8 µM | K562 11 µM | SF-268 8.85 µM | COLO 205 15.6 µM | NCI-H522 8.3 µM | HCT-116 10.4 µM

COc1nc(=O)n(C2CC(F)C(CO)O2)cc1C (stereo not given)
inactive: BT-549 > 100 µM | RPMI-8226 > 100 µM | SNB-19 > 100 µM | 786-0 > 100 µM | UACC-62 > 100 µM | UO-31 > 100 µM | HOP-62 > 100 µM | NCI/ADR-RES > 100 µM | DU-145 > 100 µM | LOX IMVI > 100 µM | OVCAR-4 > 100 µM | EKVX > 100 µM | K562 > 100 µM | SF-268 > 100 µM | COLO 205 > 100 µM | NCI-H522 > 100 µM | HCT-116 > 100 µM

N#Cc1c(/C=C/c2ccccc2)c2c([nH]c1=S)CCCCC2
inactive: SK-OV-3 > 100 µM | RPMI-8226 > 100 µM | SNB-19 > 100 µM | 786-0 > 100 µM | UO-31 > 100 µM | HOP-62 > 100 µM | NCI/ADR-RES > 100 µM | RXF 393 > 100 µM | DU-145 > 100 µM | LOX IMVI > 100 µM | PC-3 > 100 µM | OVCAR-4 > 100 µM | EKVX > 100 µM | K562 > 100 µM | SF-268 > 100 µM | COLO 205 > 100 µM | NCI-H522 > 100 µM | HCT-116 > 100 µM

O=C1C(=O)N(c2ccc(Cl)cc2)C(=O)C(=O)C1c1nc2ccccc2o1
inactive: SK-OV-3 > 100 µM | RPMI-8226 > 100 µM | SNB-19 > 100 µM | 786-0 > 100 µM | UACC-62 > 100 µM | UO-31 > 100 µM | HOP-62 > 100 µM | RXF 393 > 100 µM | LOX IMVI > 100 µM | OVCAR-4 > 100 µM | EKVX > 100 µM | K562 > 100 µM | SF-268 > 100 µM | COLO 205 > 100 µM | NCI-H522 > 100 µM | HCT-116 > 100 µM

C=CC1(c2ccc(OC)cc2)OCCCO1
inactive: SK-OV-3 > 100 µM | RPMI-8226 > 100 µM | SNB-19 > 100 µM | 786-0 > 100 µM | UACC-62 > 100 µM | UO-31 > 100 µM | HOP-62 > 100 µM | NCI/ADR-RES > 100 µM | RXF 393 > 100 µM | DU-145 > 100 µM | LOX IMVI > 100 µM | PC-3 > 100 µM | OVCAR-4 > 100 µM | EKVX 15 µM | K562 > 100 µM | SF-268 > 100 µM | COLO 205 > 100 µM | NCI-H522 > 100 µM | HCT-116 > 100 µM
